Source: paper PMC12446468, “Anti-inflammatory and cytotoxic assessment of flavonoids isolated from Viola odorata flowers with computer-guided docking study” (Scientific Reports, 2025)
Marks after values point to notes of the source that are not given here.

Columns and labels:
COX-1 = biological target: T1, COX-1 (Ovis aries, UniProt P05979); assay: COX-1 inhibition assay (Cayman COX kit); type: biochemical, ovine/human; conditions: mean ± SE, n = 3
T1 construct: purchased Cayman 560131
T1 sequence (P05979 25-600): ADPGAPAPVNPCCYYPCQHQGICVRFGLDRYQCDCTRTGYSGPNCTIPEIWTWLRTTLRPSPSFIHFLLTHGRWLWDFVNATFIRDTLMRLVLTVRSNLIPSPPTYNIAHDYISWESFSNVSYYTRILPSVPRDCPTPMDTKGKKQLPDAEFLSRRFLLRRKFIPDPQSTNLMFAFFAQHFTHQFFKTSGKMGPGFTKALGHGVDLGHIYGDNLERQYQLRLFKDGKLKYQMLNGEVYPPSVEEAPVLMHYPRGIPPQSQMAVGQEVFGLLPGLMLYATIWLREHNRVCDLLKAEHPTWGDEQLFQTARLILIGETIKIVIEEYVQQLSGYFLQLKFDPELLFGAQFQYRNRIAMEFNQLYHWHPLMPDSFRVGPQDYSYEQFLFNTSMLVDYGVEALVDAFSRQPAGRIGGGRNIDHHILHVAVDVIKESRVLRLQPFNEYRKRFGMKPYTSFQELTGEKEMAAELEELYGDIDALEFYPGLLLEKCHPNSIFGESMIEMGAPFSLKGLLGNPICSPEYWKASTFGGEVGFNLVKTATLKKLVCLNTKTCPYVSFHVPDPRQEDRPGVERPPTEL
Source text: (§1) The requirements for High-Performance Liquid Chromatography (HPLC) and all compounds tested were of the utmost analytical purity. […] COX-1 and COX-2 (ovine/human), as well as the 5-LOX enzyme (human recombinant) were obtained from Sigma-Aldrich. Dulbecco’s Modified Eagle’s Medium (DMEM), along with penicillin/streptomycin and L-glutamine, were acquired from Gibco BRL, California, USA. Fetal bovine serum (FBS) and 3-(4, 5-dimethylthiazol-2-yl)-2, 5-[…] (MTT) were supplied by Sigma-Aldrich, St. Louis, Missouri, USA.
(§2) The methanolic extract of V. odorata flowers and isolated flavonoids were subjected to an in vitro anti-inflammatory assessment by inhibiting two isoenzymes, cyclooxygenase COX-1 and COX-2 (ovine/human), as well as the 5-LOX enzyme (human recombinant).

COX-2 = biological target: T2, COX-2 (Homo sapiens, UniProt P35354); assay: COX-2 inhibition assay (Cayman COX kit); type: biochemical, ovine/human
T2 construct: purchased Cayman 560131
T2 sequence (P35354 18-604): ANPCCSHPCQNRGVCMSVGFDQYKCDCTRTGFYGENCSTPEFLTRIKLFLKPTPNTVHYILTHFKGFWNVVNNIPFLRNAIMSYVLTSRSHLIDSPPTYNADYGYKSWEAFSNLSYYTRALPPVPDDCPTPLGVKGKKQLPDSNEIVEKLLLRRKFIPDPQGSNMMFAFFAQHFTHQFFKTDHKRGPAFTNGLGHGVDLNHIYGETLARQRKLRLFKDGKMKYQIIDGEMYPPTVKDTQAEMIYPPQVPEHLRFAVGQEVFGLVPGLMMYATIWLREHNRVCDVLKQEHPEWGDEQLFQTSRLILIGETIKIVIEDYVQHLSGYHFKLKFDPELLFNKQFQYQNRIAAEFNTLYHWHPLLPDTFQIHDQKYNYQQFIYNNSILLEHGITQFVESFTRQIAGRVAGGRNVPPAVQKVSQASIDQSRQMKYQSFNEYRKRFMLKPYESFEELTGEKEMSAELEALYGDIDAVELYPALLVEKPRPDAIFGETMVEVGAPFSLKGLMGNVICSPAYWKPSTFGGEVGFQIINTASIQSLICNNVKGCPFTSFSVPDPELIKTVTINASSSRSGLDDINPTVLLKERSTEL
Source text: as §1, §2

[1] = biological target: T3, 5-LOX enzyme (human recombinant) (Homo sapiens, UniProt P09917); assay: 5-lipoxygenase inhibition assay (5-LOX kit); type: biochemical; conditions: mean ± SE, n = 3
T3 construct: purchased Sigma-Aldrich 437996
T3 sequence (P09917 1-674): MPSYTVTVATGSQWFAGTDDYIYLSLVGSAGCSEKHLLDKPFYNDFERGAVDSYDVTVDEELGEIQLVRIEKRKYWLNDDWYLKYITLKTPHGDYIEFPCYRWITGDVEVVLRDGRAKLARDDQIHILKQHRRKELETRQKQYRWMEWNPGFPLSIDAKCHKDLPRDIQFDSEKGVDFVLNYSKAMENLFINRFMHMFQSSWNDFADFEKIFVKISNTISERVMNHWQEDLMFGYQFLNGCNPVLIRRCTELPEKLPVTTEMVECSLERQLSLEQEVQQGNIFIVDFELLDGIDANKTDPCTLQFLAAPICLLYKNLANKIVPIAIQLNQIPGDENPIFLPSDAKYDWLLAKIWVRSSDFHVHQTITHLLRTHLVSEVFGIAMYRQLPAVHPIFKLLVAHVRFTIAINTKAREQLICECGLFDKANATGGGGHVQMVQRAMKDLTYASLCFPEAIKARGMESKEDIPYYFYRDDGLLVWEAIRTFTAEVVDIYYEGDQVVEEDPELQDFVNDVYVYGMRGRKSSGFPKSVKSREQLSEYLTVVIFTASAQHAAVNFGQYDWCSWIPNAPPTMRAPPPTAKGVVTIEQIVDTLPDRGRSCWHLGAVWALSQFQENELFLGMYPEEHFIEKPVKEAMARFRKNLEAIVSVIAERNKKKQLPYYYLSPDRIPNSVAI
Source text: as §1, §2

[2] = system: hepatocellular carcinoma (HepG2); assay: MTT cytotoxicity assay, HepG2; type: cell-based, human; conditions: for % Cell viability / % Cytotoxicity: 48 h
Description: (§3) The assessment of cytotoxicity for the methanolic extract and isolated flavonoids was performed under controlled and sterile conditions within a Class II A2 Laminar flow biosafety cabinet. The carcinoma cell lines used in this study was obtained from Nawah Scientific Inc. (Cairo, Egypt). The cells were cultured in Dulbecco’s Modified Eagle’s Medium, enriched with 10% heat-inactivated fetal bovine serum, 100 U/ml penicillin, and 100 μg/ml streptomycin sulfate, maintained at […] in humidified incubators with 5% CO2. Upon reaching approximately 80% confluence, the cells were subcultured using a trypsin–EDTA solution. Harvesting occurred during the logarithmic growth phase. The methanolic extract and isolated flavonoids were dissolved in DMSO and stored at − 20 °C. For each experimental trial, the stock solutions were mixed with the culture medium to obtain the required final concentrations.
(§4) The effectiveness of the extract was compared to that of the reference drug, Doxorubicin. The percentage of cell viability was calculated by taking the ratio of the absorbance of the plant extract to that of the control, multiplied by 100. Furthermore, the IC50 value of the plant extract was determined using Sigma Plot software version 11 (Spw.exe) (https://sigmaplot.software.informer.com/11.0/).

[3] = system: human colonic epithelial cells (Caco-2); assay: MTT cytotoxicity assay, Caco-2; type: cell-based; conditions: for % Cell viability / % Cytotoxicity: 48 h
Description: as §3, §4

[4] = system: human colorectal carcinoma cells (HTC-116); assay: MTT cytotoxicity assay, HTC-116; type: cell-based; conditions: for % Cell viability / % Cytotoxicity: 48 h
Description: as §3, §4

O=c1cc(-c2ccc(O)c(O)c2)oc2cc(O[C@@H]3O[C@H](CO)[C@@H](O)[C@H](O)[C@H]3O)cc(O)c12 [Luteolin 7-O-glucoside, luteolin 7-O-glucoside]
IC50 values COX-1 (COX-1): 0.982 ± 0.09^c ug/ml
IC50 values COX-2 (COX-2; mean ± SE, n = 3): 1.305 ± 0.14^b ug/ml
Selectivity Index (COX-1/COX-2) (COX-2; ratio of IC50 COX-1 to IC50 COX-2): 0.75
IC50 values 5-LOX [1]: 0.915 ± 0.21^ab ug/ml
% Cell viability ([2]; HepG2, 6.25 ug/ml): 70.35%
% Cytotoxicity ([2]; HepG2, 6.25 ug/ml): 29.65%
% Cell viability ([2]; HepG2, 12.5 ug/ml): 63.99%
% Cytotoxicity ([2]; HepG2, 12.5 ug/ml): 36.01%
% Cell viability ([2]; HepG2, 25 ug/ml): 42.58%
% Cytotoxicity ([2]; HepG2, 25 ug/ml): 57.42%
% Cell viability ([2]; HepG2, 50 ug/ml): 28.52%
% Cytotoxicity ([2]; HepG2, 50 ug/ml): 71.48%
% Cell viability ([2]; HepG2, 100 ug/ml): 14.11%
% Cytotoxicity ([2]; HepG2, 100 ug/ml): 85.89%
IC50 ([2]; HepG2, 48 h): 28.23^c ug/ml
% Cell viability ([3]; Caco-2, 6.25 ug/ml): 70.32%
% Cytotoxicity ([3]; Caco-2, 6.25 ug/ml): 29.68%
% Cell viability ([3]; Caco-2, 12.5 ug/ml): 60.35%
% Cytotoxicity ([3]; Caco-2, 12.5 ug/ml): 39.65%
% Cell viability ([3]; Caco-2, 25 ug/ml): 49.22%
% Cytotoxicity ([3]; Caco-2, 25 ug/ml): 50.78%
% Cell viability ([3]; Caco-2, 50 ug/ml): 31.01%
% Cytotoxicity ([3]; Caco-2, 50 ug/ml): 68.99%
% Cell viability ([3]; Caco-2, 100 ug/ml): 10.63%
% Cytotoxicity ([3]; Caco-2, 100 ug/ml): 89.37%
IC50 ([3]; Caco-2, 48 h): 29.42^c ug/ml
% Cell viability ([4]; HTC-116, 6.25 ug/ml): 69.86%
% Cytotoxicity ([4]; HTC-116, 6.25 ug/ml): 30.14%
% Cell viability ([4]; HTC-116, 12.5 ug/ml): 59.38%
% Cytotoxicity ([4]; HTC-116, 12.5 ug/ml): 40.62%
% Cell viability ([4]; HTC-116, 25 ug/ml): 49.17%
% Cytotoxicity ([4]; HTC-116, 25 ug/ml): 50.83%
% Cell viability ([4]; HTC-116, 50 ug/ml): 34.03%
% Cytotoxicity ([4]; HTC-116, 50 ug/ml): 65.97%
% Cell viability ([4]; HTC-116, 100 ug/ml): 13.01%
% Cytotoxicity ([4]; HTC-116, 100 ug/ml): 86.99%
IC50 ([4]; HTC-116, 48 h): 30.17^c ug/ml
